Measurements reported in US8247211B2, “Glycopeptide antibiotics” (American Cyanamid Company, priority 2001, dated 2012).
Converted amounts (≈) assume the structure as drawn.

Assays:
Test in all cases: In vitro antibacterial evaluation: minimum inhibitory concentration (MIC), broth dilution method
Format in all cases: cell-based
[1] = system: Escherichia coli
How it was run: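 MIC read as lowest drug level preventing visible growth. Organisms at 5×10^5 CFU/mL were exposed to a 64-0.06 μg/mL dilution series in Muller-Hinton II […] following NCCLS broth dilution standard M7-A2.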

[2] = system: Staphylococcus sp.; details: 18 hours at 35° C.
How it was run: (§1)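 Broth dilution per NCCLS M7-A2 in Muller-Hinton II […], inoculum 5×10^5 CFU/mL, antibiotic tested over 64-0.06 μg/mL. MIC is taken as the lowest concentration that inhibits growth. Panel includes recent clinical isolates resistant to methicillin, penicillin and/or vancomycin.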

[3] = system: Enterococcus sp.
How it was run: as §1

[4] = system: Escherichia coli; remark: listed apart in the source

MIC Escherichia coli (GC 4559) ([1]; Escherichia coli (GC 4559)): >64 µg/mL
MIC Escherichia coli (GC 4560) ([1]; Escherichia coli (GC 4560)): 4 µg/mL (≈ 2.9 µM)
MIC Coagulase Negative Staphylococcus (GC 4547) [2]: 4 µg/mL (≈ 2.9 µM)
MIC Coagulase Negative Staphylococcus (GC 4547) ([2]; broth dilution): 4 µg/mL (≈ 2.9 µM)
MIC Coagulase Negative Staphylococcus (GC 4548) [2]: 4 µg/mL (≈ 2.9 µM)
MIC Coagulase Negative Staphylococcus (GC 4548) ([2]; broth dilution): 4 µg/mL (≈ 2.9 µM)
MIC Coagulase Negative Staphylococcus (GC 4549) [2]: 2 µg/mL (≈ 1.45 µM)
MIC Coagulase Negative Staphylococcus (GC 4549) ([2]; broth dilution): 2 µg/mL (≈ 1.45 µM)
MIC Coagulase Negative Staphylococcus (GC 4551) [2]: 8 µg/mL (≈ 5.81 µM)
MIC Coagulase Negative Staphylococcus (GC 4551) ([2]; broth dilution): 8 µg/mL (≈ 5.81 µM)
MIC Coagulase Negative Staphylococcus (GC 6257) [2]: 2 µg/mL (≈ 1.45 µM)
MIC Coagulase Negative Staphylococcus (GC 6257) ([2]; broth dilution): 2 µg/mL (≈ 1.45 µM)
MIC Staphylococcus aureus (ATCC 29213) [2]: 8 µg/mL (≈ 5.81 µM)
MIC Staphylococcus aureus (ATCC 29213) ([2]; broth dilution): 8 µg/mL (≈ 5.81 µM)
MIC Staphylococcus aureus (GC 1131) [2]: 8 µg/mL (≈ 5.81 µM)
MIC Staphylococcus aureus (GC 1131) ([2]; broth dilution): 8 µg/mL (≈ 5.81 µM)
MIC Staphylococcus aureus (GC 3051) [2]: 4 µg/mL (≈ 2.9 µM)
MIC Staphylococcus aureus (GC 3051) ([2]; broth dilution): 4 µg/mL (≈ 2.9 µM)
MIC Staphylococcus aureus (GC 3053) [2]: 8 µg/mL (≈ 5.81 µM)
MIC Staphylococcus aureus (GC 3053) ([2]; broth dilution): 8 µg/mL (≈ 5.81 µM)
MIC Staphylococcus aureus (GC 4541) [2]: 8 µg/mL (≈ 5.81 µM)
MIC Staphylococcus aureus (GC 4541) ([2]; broth dilution): 8 µg/mL (≈ 5.81 µM)
MIC Staphylococcus aureus (GC 4542) [2]: 8 µg/mL (≈ 5.81 µM)
MIC Staphylococcus aureus (GC 4542) ([2]; broth dilution): 8 µg/mL (≈ 5.81 µM)
MIC Staphylococcus aureus (GC 4544) [2]: 8 µg/mL (≈ 5.81 µM)
MIC Staphylococcus aureus (GC 4544) ([2]; broth dilution): 8 µg/mL (≈ 5.81 µM)
MIC Staphylococcus aureus (GC 4545) [2]: 4 µg/mL (≈ 2.9 µM)
MIC Staphylococcus aureus (GC 4545) ([2]; broth dilution): 4 µg/mL (≈ 2.9 µM)
MIC Staphylococcus aureus-SMITH (GC 4543) [2]: 8 µg/mL (≈ 5.81 µM)
MIC Staphylococcus aureus-SMITH (GC 4543) ([2]; broth dilution): 8 µg/mL (≈ 5.81 µM)
MIC Enterococcus avium (GC 4558) ([3]; Enterococcus avium (GC 4558)): 32 µg/mL (≈ 23.2 µM)
MIC Enterococcus faecalis (ATCC 29212) ([3]; Enterococcus faecalis (ATCC 29212)): 32 µg/mL (≈ 23.2 µM)
MIC Enterococcus faecalis (GC 4553) ([3]; Enterococcus faecalis (GC 4553)): 32 µg/mL (≈ 23.2 µM)
MIC Enterococcus faecalis (GC 4554) ([3]; Enterococcus faecalis (GC 4554)): 32 µg/mL (≈ 23.2 µM)
MIC Enterococcus faecalis (GC 6189) ([3]; Enterococcus faecalis (GC 6189)): 32 µg/mL (≈ 23.2 µM)
MIC Enterococcus faecium (GC 2243) ([3]; Enterococcus faecium (GC 2243)): 32 µg/mL (≈ 23.2 µM)
MIC Enterococcus faecium (GC 4556) ([3]; Enterococcus faecium (GC 4556)): 32 µg/mL (≈ 23.2 µM)
MIC Enterococcus faecium (GC 4557) ([3]; Enterococcus faecium (GC 4557)): 8 µg/mL (≈ 5.81 µM)
MIC Escherichia coli (ATCC 25922) [4]: >64 µg/mL
Structure (SMILES): CC=C(C)C(=O)OC1C(CO)OC(OC2C(CO)OC(Oc3ccc(CC4NC(=O)C(C(C)c5ccccc5)NC(=O)CNC(=O)C(CO)NC(=O)C(C(O)C5CNC(=N)N5C5OC(CO)C(O)C(O)C5O)NC(=O)C(C(O)C5CNC(=N)N5)NC4=O)cc3)C(O)C2O)C(O)C1O (stereo not drawn) [Example 278b, Cyclo[glycyl-β-methylphenylalanyl-O-[4-O-[4-O-(2-methylbut-2-enoyl)hexopyranosyl]-hexopyranosyl]tyrosyl-3-(2-iminoimidazolidin-4-yl)seryl-3-(3-hexopyranosyl-2-imino-imidazolidin-4-yl)serylseryl]]
MIC Staphylococcus haemolyticus (GC 4546) [2]: 4 µg/mL (≈ 2.9 µM)
MIC Staphylococcus haemolyticus (GC 4546) ([2]; broth dilution): 4 µg/mL (≈ 2.9 µM)
